Experimental data published in ChEMBL document CHEMBL1201862, “PubChem BioAssay data set” (2004).
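Method: 48-hour compound exposure of cells in 96-well plates, five concentrations, linear interpolation of endpoints. GI50 = concentration required for 50% inhibition of growth.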 Calls of active or inactive are those of the source. Cut-off read from the data, not from the text of the source: active = GI50 up to about 1.1 µM and inactive = higher.

How the values were obtained:
Assay in all cases: inhibition of tumour cell growth, NCI panel, 48 h
SK-MEL-2 = system: SK-MEL-2
SR = system: SR
HOP-18 = system: HOP-18
UACC-62 = system: UACC-62
SK-MEL-5 = system: SK-MEL-5
HOP-92 = system: HOP-92
OVCAR-3 = system: OVCAR-3
EKVX = system: EKVX
SW-620 = system: SW-620
SNB-78 = system: SNB-78
UACC-257 = system: UACC-257
RPMI-8226 = system: RPMI-8226
SK-OV-3 = system: SK-OV-3
HCC 2998 = system: HCC 2998
SK-MEL-28 = system: SK-MEL-28
NCI-H226 = system: NCI-H226
NCI-H460 = system: NCI-H460
DLD-1 = system: DLD-1
KM12 = system: KM12
Malme-3M = system: Malme-3M
LOX IMVI = system: LOX IMVI
K562 = system: K562
HOP-62 = system: HOP-62
LXFL 529 = system: LXFL 529
M14 = system: M14
ACHN = system: ACHN
XF498 = system: XF498
786-0 = system: 786-0
OVCAR-5 = system: OVCAR-5
IGROV-1 = system: IGROV-1
SN12C = system: SN12C
HL-60 = system: HL-60
DMS-273 = system: DMS-273
U-251 = system: U-251
COLO 205 = system: COLO 205
OVCAR-4 = system: OVCAR-4
CAKI-1 = system: CAKI-1
UO-31 = system: UO-31
SNB-75 = system: SNB-75
NCI-H522 = system: NCI-H522
OVCAR-8 = system: OVCAR-8
SNB-19 = system: SNB-19
HCT-15 = system: HCT-15
A549 = system: A549
HCT-116 = system: HCT-116
MOLT-4 = system: MOLT-4
SF-268 = system: SF-268
SF-539 = system: SF-539
HT-29 = system: HT-29
M19-MEL = system: M19-MEL
NCI-H23 = system: NCI-H23
CCRF-CEM = system: CCRF-CEM
SF-295 = system: SF-295
DMS-114 = system: DMS-114
KM-20L2 = system: KM-20L2
A498 = system: A498
TK-10 = system: TK-10
RXF 393 = system: RXF 393

Which results are given for `COc1ccc(N2C(=O)[C@@H]3[C@@H]4CC(C)CC[C@@H]4c4c([nH]c5ccccc45)[C@@H]3C2=O)cc1` (stereo not given in full)?
GI50 (SK-MEL-2): 8.79 µM (inactive); GI50 (SR): 12.6 µM (inactive); GI50 (HOP-18): 4.4 µM (inactive); GI50 (UACC-62): 15.9 µM (inactive); GI50 (SK-MEL-5): 34 µM (inactive); GI50 (HOP-92): 5.92 µM (inactive); GI50 (OVCAR-3): 19.8 µM (inactive); GI50 (EKVX): 28.9 µM (inactive); GI50 (SW-620): 13.1 µM (inactive); GI50 (SNB-78): 3.76 µM (inactive); GI50 (UACC-257): 53.8 µM (inactive); GI50 (RPMI-8226): > 10 µM (inactive); GI50 (SK-OV-3): 7.98 µM (inactive); GI50 (HCC 2998): 13.5 µM (inactive); GI50 (SK-MEL-28): 36 µM (inactive); GI50 (NCI-H226): 7.38 µM (inactive); GI50 (NCI-H460): 13.5 µM (inactive); GI50 (DLD-1): 29.5 µM (inactive); GI50 (KM12): 50.1 µM (inactive); GI50 (Malme-3M): 34.4 µM (inactive); GI50 (LOX IMVI): 10.5 µM (inactive); GI50 (K562): 30.7 µM (inactive); GI50 (HOP-62): 12.6 µM (inactive); GI50 (LXFL 529): 20.3 µM (inactive); GI50 (M14): 26.4 µM (inactive); GI50 (ACHN): 7.36 µM (inactive); GI50 (XF498): 8.3 µM (inactive); GI50 (786-0): 7.45 µM (inactive); GI50 (OVCAR-5): > 77.6 µM (inactive); GI50 (IGROV-1): 18.8 µM (inactive); GI50 (SN12C): 11.2 µM (inactive); GI50 (HL-60): 29.1 µM (inactive); GI50 (DMS-273): 14.7 µM (inactive); GI50 (U-251): 11.4 µM (inactive); GI50 (COLO 205): 33 µM (inactive); GI50 (OVCAR-4): 18 µM (inactive); GI50 (CAKI-1): 29 µM (inactive); GI50 (UO-31): 17 µM (inactive); GI50 (SNB-75): 2.82 µM (inactive); GI50 (NCI-H522): 19.4 µM (inactive); GI50 (OVCAR-8): 12.8 µM (inactive); GI50 (SNB-19): 8.24 µM (inactive); GI50 (HCT-15): 15.3 µM; GI50 (A549): 17.3 µM (inactive); GI50 (HCT-116): 6.44 µM (inactive); GI50 (MOLT-4): 19.8 µM (inactive); GI50 (SF-268): 13.3 µM (inactive); GI50 (SF-539): 8.38 µM (inactive); GI50 (HT-29): 47.4 µM (inactive); GI50 (M19-MEL): > 70.1 µM (inactive); GI50 (NCI-H23): 15.5 µM (inactive); GI50 (CCRF-CEM): 24.2 µM (inactive); GI50 (SF-295): 12.4 µM (inactive); GI50 (DMS-114): 31.1 µM (inactive); GI50 (KM-20L2): > 54.8 µM (inactive); GI50 (A498): 16.4 µM (inactive); GI50 (TK-10): 18.8 µM (inactive)

`Cc1ccc(S(=O)(=O)NCC2CCCCC2=O)cc1` (stereo not given) was tested. Which GI50 (SK-MEL-2) did it give?
Its GI50 is > 100 µM (inactive).

What about the GI50 (HOP-18) of the same compound?
Its GI50 is > 100 µM (inactive).

What about the GI50 (UACC-62) of the same compound?
Its GI50 is 66.5 µM (inactive).

What about the GI50 (SK-MEL-5) of the same compound?
Its GI50 is 82.4 µM (inactive).

What about the GI50 (HOP-92) of the same compound?
The GI50 was 24.2 µM (inactive).

What about the GI50 (OVCAR-3) of the same compound?
Its GI50 is > 100 µM (inactive).

And the GI50 (EKVX)?
Its GI50 is > 100 µM (inactive).

And the GI50 (SW-620)?
The GI50 was > 100 µM (inactive).

And the GI50 (SNB-78)?
Its GI50 is > 100 µM (inactive).

And the GI50 (UACC-257)?
The GI50 was 16.4 µM (inactive).

And the GI50 (RPMI-8226)?
Its GI50 is 40.8 µM (inactive).

What about the GI50 (SK-OV-3) of the same compound?
The GI50 was > 100 µM (inactive).

What about the GI50 (SK-MEL-28) of the same compound?
The GI50 was > 100 µM (inactive).

What about the GI50 (NCI-H226) of the same compound?
The GI50 was > 100 µM (inactive).

And the GI50 (NCI-H460)?
The GI50 was > 100 µM (inactive).

And the GI50 (KM12)?
Its GI50 is > 100 µM (inactive).

And the GI50 (Malme-3M)?
The GI50 was > 100 µM (inactive).

What about the GI50 (LOX IMVI) of the same compound?
The GI50 was > 100 µM (inactive).

What about the GI50 (K562) of the same compound?
The GI50 was 66.1 µM (inactive).

What about the GI50 (LXFL 529) of the same compound?
The GI50 was > 100 µM (inactive).

What about the GI50 (M14) of the same compound?
Its GI50 is > 100 µM (inactive).

What about the GI50 (XF498) of the same compound?
The GI50 was > 100 µM (inactive).

What about the GI50 (786-0) of the same compound?
Its GI50 is > 100 µM (inactive).

What about the GI50 (OVCAR-5) of the same compound?
The GI50 was > 100 µM (inactive).

What about the GI50 (IGROV-1) of the same compound?
The GI50 was > 100 µM (inactive).

What about the GI50 (SN12C) of the same compound?
Its GI50 is > 100 µM (inactive).

And the GI50 (HL-60)?
The GI50 was 45.3 µM (inactive).

And the GI50 (DMS-273)?
The GI50 was > 100 µM (inactive).

And the GI50 (U-251)?
The GI50 was > 100 µM (inactive).

And the GI50 (COLO 205)?
Its GI50 is > 100 µM (inactive).

And the GI50 (OVCAR-4)?
The GI50 was 69.3 µM (inactive).

And the GI50 (CAKI-1)?
The GI50 was 15 µM (inactive).

And the GI50 (RXF 393)?
The GI50 was > 100 µM (inactive).

What about the GI50 (UO-31) of the same compound?
Its GI50 is 57.3 µM (inactive).

What about the GI50 (SNB-75) of the same compound?
The GI50 was 22.9 µM (inactive).

And the GI50 (NCI-H522)?
The GI50 was 56.8 µM (inactive).

What about the GI50 (OVCAR-8) of the same compound?
The GI50 was > 100 µM (inactive).

What about the GI50 (SNB-19) of the same compound?
Its GI50 is > 100 µM (inactive).

What about the GI50 (HCT-15) of the same compound?
Its GI50 is greater than 100 µM.

And the GI50 (A549)?
Its GI50 is > 100 µM (inactive).

What about the GI50 (HCT-116) of the same compound?
Its GI50 is > 100 µM (inactive).

And the GI50 (MOLT-4)?
Its GI50 is 49.7 µM (inactive).

What about the GI50 (SF-268) of the same compound?
The GI50 was 70 µM (inactive).

What about the GI50 (SF-539) of the same compound?
Its GI50 is > 100 µM (inactive).

What about the GI50 (HT-29) of the same compound?
Its GI50 is 10.2 µM (inactive).

And the GI50 (M19-MEL)?
The GI50 was > 100 µM (inactive).

What about the GI50 (NCI-H23) of the same compound?
Its GI50 is > 100 µM (inactive).

And the GI50 (CCRF-CEM)?
Its GI50 is > 100 µM (inactive).

And the GI50 (SF-295)?
The GI50 was > 100 µM (inactive).

And the GI50 (DMS-114)?
The GI50 was 51.9 µM (inactive).

And the GI50 (KM-20L2)?
Its GI50 is > 100 µM (inactive).

What about the GI50 (A498) of the same compound?
Its GI50 is > 100 µM (inactive).

What about the GI50 (TK-10) of the same compound?
The GI50 was > 100 µM (inactive).
